In patent EP0510235A1, “Novel benzoxazine or benzothiazine derivatives and process for the preparation of the same” (DONG-A PHARM. CO., LTD., priority 1991, dated 1992):
pIC50: −log10 of the molar value. Values joined by “and” are separate entries in the source; they are usually repeats but may differ in a detail not shown here. Identical values can stand only once. Values belong to the compound of their own block, whether it stands above or below them.

Key:
[1] = system: blood-perfused sino-atrial preparation; experiment: Determination of sinus rate on blood-perfused sino-atrial preparation; set-up: species or system dog; conditions: vs sinus rate prior to injection; for activation at 0.003 mg: dose 3.0 ug; for activation at 0.01 mg: dose 10.0 ug; for activation at 0.03 mg: dose 30.0 ug; for activation at 0.0001 mg: dose 0.1 ug; for change of sinus rate(%): listed as 8-methyl-6-(4-met-hylimidazol-1-)-( 4H)-3,1-benzothia-zin-2-one
Method: Mongrel dogs of either sex weighing 7-12kg were anesthetized with sodium pentoba rbital(30mg/kg i.v.). Heparin of 1000 unit/kg was administered to each animal intravenously and the animals were exsanguinated. Heart was removed and put in Krebs-Henselelt solution. Catheter was inserted into blood vessel between right coronary artery and SA nodes. Right artrium and catheter were together removed. Blood supplied from carotid artery of donor dog of either sex weighing 15-25kg, was supplied to blood vessel cather from right coronary artery and SA node under constant blood pressure of 100mmHg by use of Peristaltic pump. The resting tension of right atrial muscle was made to 2g. The sinus rate triggered by spontaneous contraction of atrial muscle was determined on Narco physiograph(Narcotrace 4). Detailed method was reported by S. Chiba, et al. in Japanese Pharmacology 25, 433-439(1975). Doses of test compounds were injected into flowing blood in gum tube connected to the near part of the catheter inserted into right coronary artery. The effects on sinus rate were shown as percent compared with the sinus rate prior to the injection of the test compounds.

[2] = system: blood perfused papillary muscle preparation; experiment: Determination of contractile power on blood perfused papillary muscle preparation; set-up: species or system dog; conditions: for ED 30: dose giving 30% increase of developed tension, least-square method
Method: Dogs of either sex weighing 7-12kg were anesthetized with sodium pentobarbital (30mg/kg,i.v.). Heparin of 1000 unit/kg was administered to each animal intravenously. The animals were exsanguinated and heart was removed. The preparation was perfused through the cannulated anterior septal artery(ASA) with arterial blood from a donor dog at constant pressure of about 100 mmHg. Donor dogs were anesthetized with sodium pentobarbital (30mg/kg, i.v.). Heparin of 1000 units/kg was administered intravenously. The papillary muscle was stimulated with rectangular pulses of 5- ms duration and about 1.5 times the threshold voltage at a rate of 120 stimuli/min through bipolar electrodes.Resting tension was made to 2 g.The developed tension of papillary muscle was determined by Isometric tresducer.Detailed method was reported by Matsumoto in Am. J. Physiol. 218, 1459-1463 (1970). Test compound at the doses of 10-30ul was injected in flowing blood in the gum tube connected to catheter. The inotropic effect of the test compounds was shown by change percent of developed tension compared with that prior to the administration of the test compounds.ED₃₀ value was determined by least-square method and the results were shown in the Table 1.

[3] = molecular target: cyclic AMP phosphodiesterase; experiment: Effect on cyclic AMP phosphodiesterase isolated from dog's heart; type: biochemical; conditions: substrate 1.0 uM; for Inhibitory effect on PDE activity: values fall with concentration
Method: Dogs weighing 10 kg were anesthetized with sodium pentobarbital and heparin was administered intravenously. Heart was removed. Two to four grams of left ventricular muscle was obtained and the tissue was rinsed in ice-cold salin. Left ventricular muscle was homogenized in10 volumes of homogenzing buffer(Tris-HCl, pH 7.8). Homogenate was then centrifuged at 100,000 X g for 40 minutes, after which the supernatent was removed. The pellet was resuspended in homogenizing buffer, centrifuged as before and the supernatent obtained as discarded. The pellet was resuspended in 10 volumes of homogenizing buffer containing Triton X-100 and Brij 30, and incubated overnight at 4°C. The detergent-extracted proteins were then separated by centrifugation at 100,000 X g for 40 monutes. The detergent-extracted protein was dialyzed against 70mM sodium acetate /5mM 2-mercaptoethanol(pH 6.5) for 5 hours. The dialyzed extract was applied to a DEAE-cellulose column and eluted using a 70-1000 mM sodium acetate gradient. Appropriate fractions were pooled and concentrated using Amicon ultrafiltration cell. Following concentration, the protein was diluted with ethylene glycol and stored at -20°C.
Phosphodiesterase activity was measured in a reaction medium (40mM Tris-HCl, pH 8.0). The concentration of substrate was 1.0 uM. The IC 50 values( concentration which produced 50% inhibition of substrate hydrolysis) for the various compounds examined were determined from concentration-response curves. Detailed method of this experiment was reported in J.Mol.Cell Cardiol. 19, 1025-1036 (1987).

[4] = Acute toxicity test in rats, oral; conditions: rat, in vivo
Method: Acute toxicity test of 6-(4-methylimidazol-1-yl)-(4H)-3,1-benzoxazin-2-one was conducted in Spraque-Dawley rats. The test compound was suspended in 5% arabic gum and was administered orally to six rats at a dose of 300mg/kg body weight.
Accordingly, LD 50 of the compound is 300 mg/kg or more.

[5] = Acute toxicity test in mice, oral; conditions: mouse, in vivo
Method: Acute toxicity test of 6-(4-methylimidazol-1-yl)-(4H)-3,1-benzothiazine-2-thione was conducted in BALB/C mice. The test compound was suspended in 5% arabic gum solution and administered orally to five mice at a dose of 200 mg/kg body weight by gastric tubing. […] Accordingly, LD₅₀ of the compound is 200mg/kg or more.

[6] = Acute toxicity test in ICR mouse, intravenous; conditions: in vivo
Method: Acute toxicity test of 6-(4-methylimidazol-1-yl)-(4H)-3,1-benzothiazin-2-one was conducted in ICR mouse. The test compound was dissolved in a mixed solvent of saline and DMF (2:1) and was administered intraveneously to five mice at a dose of 30mg/kg body weight. […] Accordingly, LD₅₀ of the cmpound is 30mg/kg or more.

[7] = Canis lupus familiaris, dose 1.0 ug, read-out: change of sinus rate(%)
[8] = Canis lupus familiaris, read-out: change of sinus rate(%)
[9] = at the ED 30 dose (30% by definition)

Structure (SMILES): Cc1cn(-c2ccc3c(c2)COC(=O)N3)c(C)n1 [6-(2,4-dimethylimidzol-1-yl)-(4H)-3,1-benzoxazin-2-one]
activation at 0.001 mg [1, 7]: 0%
activation at 0.003 mg [1, 8]: 0%
activation at 0.01 mg [1, 8]: 0%
activation at 0.03 mg [1, 8]: 1.67%
ED 30 [2]: ED 30 : 81.89 ug

Structure (SMILES): Cc1cn(-c2ccc3c(c2)COC(=O)N3)cn1 [6-(4-methylimidazol-1-yl)(4H)-3,1-benzoxazin-2-one]
activation at 0.001 mg [1, 7]: 0%
activation at 0.003 mg [1, 8]: 2.52%
activation at 0.01 mg [1, 8]: 5.04%
ED 30 [2]: ED 30 : 10.4 ug
pIC50 ([3]; 50% inhibition of substrate hydrolysis): 4.89
Inhibitory effect on PDE activity ([3]; test compound 0.1 uM): 95.1
Inhibitory effect on PDE activity ([3]; test compound 1 uM): 77.5
Inhibitory effect on PDE activity ([3]; test compound 10 uM): 51.7
Inhibitory effect on PDE activity ([3]; test compound 100 uM): 35.8
LD50 [4]: ≥ 300 mg/kg

Structure (SMILES): Cc1nccn1-c1ccc2c(c1)COC(=O)N2 [6-(2-methylimidazol-1-yl)-(4H)-3,1-benzoxazine-2-one]
activation at 0.001 mg [1, 7]: 0%
activation at 0.003 mg [1, 8]: 0%
activation at 0.01 mg [1, 8]: 0.86%
activation at 0.03 mg [1, 8]: 3.42%
ED 30 [2]: ED 30 > 1000 ug

Inhibitory effect on PDE activity ([3]; test compound 0.1 uM, listed as 6-(benzimidazol-1-yl)-(4H)-3,1-benzoxazin-2-one): 95.5
Inhibitory effect on PDE activity ([3]; test compound 1 uM, listed as 6-(benzimidazol-1-yl)-(4H)-3,1-benzoxazin-2-one): 90.4
Inhibitory effect on PDE activity ([3]; test compound 10 uM, listed as 6-(benzimidazol-1-yl)-(4H)-3,1-benzoxazin-2-one): 72.3
Inhibitory effect on PDE activity ([3]; test compound 100 uM, listed as 6-(benzimidazol-1-yl)-(4H)-3,1-benzoxazin-2-one): 49.5
Structure (SMILES): O=C1Nc2ccc(-n3cnc4ccccc43)cc2CO1 [6-(benzimidazol-1-yl)-(4H)-benzoxazin-2-one]
activation at 0.001 mg [1, 7]: 0%
activation at 0.003 mg [1, 8]: 0%
activation at 0.01 mg [1, 8]: 0.3%
activation at 0.03 mg [1, 8]: 0.75%
ED 30 [2]: ED 30 > 1000 ug

Structure (SMILES): CCc1nc(C)cn1-c1ccc2c(c1)COC(=O)N2 [6-(2-ethyl-4-methylimidazol-1-yl)-(4H)-3,1-benzoxazin-2-one]
activation at 0.001 mg [1, 7]: 0%
activation at 0.003 mg [1, 8]: 0%
activation at 0.01 mg [1, 8]: 0.83%
activation at 0.03 mg [1, 8]: 1.65%
ED 30 [2]: ED 30 : 269 ug

Structure (SMILES): Cc1cn(-c2cc(C)c3c(c2)COC(=O)N3)cn1 [8-methyl-6-(4-methylimidazol-1-yl)-(4H)-3,1-benzoxazin-2-one]
activation at 0.0001 mg [1, 8]: 0.8%
activation at 0.0003 mg ([1]; Canis lupus familiaris, dose 0.3 ug, read-out: change of sinus rate(%)): 1.7%
activation at 0.001 mg [1, 7]: 6.6%
activation at 0.003 mg [1, 8]: 5.8%
change of contractivity(%) [2, 9]: 30.0%
ED 30 [2]: ED 30 = 1.2 ug

Structure (SMILES): Cc1cn(-c2cc(C)c3c(c2)CSC(=O)N3)cn1 [8-methyl-6-(4-methylimidazol-1-yl)-(4H)-3,1-benzothiazin-2-one]
activation at 0.0001 mg [1, 8]: 1.7%
activation at 0.003 mg [1, 8]: 3.3%
change of sinus rate(%) ([1]; dose 0.3 ug): 4.8%
change of sinus rate(%) ([1]; dose 1.0 ug): 8.3%
change of contractivity(%) [2, 9]: 30.0%
ED 30 [2]: ED 30 = 5.0 ug
ED 30 ([2]; listed as 8-methyl-6-(4-met-hylimidazol-1-)-( 4H)-3,1-benzothia-zin-2-one): ED 30 = 0.6 ug

Inhibitory effect on PDE activity ([3]; test compound 0.1 uM): 98.4
Inhibitory effect on PDE activity ([3]; test compound 1 uM): 74.5
Inhibitory effect on PDE activity ([3]; test compound 10 uM): 52.2
Inhibitory effect on PDE activity ([3]; test compound 100 uM): 28.8
Structure (SMILES): O=C1Nc2ccc(-n3ccnc3)cc2CO1 [6-(imidazol-1-yl)-(4H)-3,1-benzoxazin-2-one]
activation at 0.001 mg [1, 7]: 0%
activation at 0.003 mg [1, 8]: 0.84%
activation at 0.01 mg [1, 8]: 2.52%
activation at 0.03 mg [1, 8]: 6.67%
ED 30 [2]: ED 30 > 1000 ug

Structure (SMILES): Cc1cn(-c2ccc3c(c2)CSC(=S)N3)cn1 [6-(4-methylimidazol-1-yl)-(4H)-3,1-benzothiazine-2-thione]
LD50 [5]: ≥ 200 mg/kg

Structure (SMILES): O=C1Nc2ccc(-n3ccnc3)cc2CS1 [6-(imidazol-1-yl)-(4H)-3,1-benzothiazin-2-one]
change of contractivity(%) [2, 9]: 30%

Structure (SMILES): Cc1cn(-c2ccc3c(c2)CSC(=O)N3)cn1 [6-(4-methylimidazol-1-yl)-(4H)-3,1-benzothiazin-2-one]
activation at 0.003 mg [1, 8]: 2.3%
activation at 0.03 mg [1, 8]: 5.6%
change of contractivity(%) [2, 9]: 30%
change of contractivity(%) ([2]; dose 1.0 ug injected into perfusing blood, developed tension vs before administration): 0.0%
change of contractivity(%) ([2]; dose 3.0 ug injected into perfusing blood, developed tension vs before administration): 7.2% and 1.5%
change of contractivity(%) ([2]; dose 10.0 ug injected into perfusing blood, developed tension vs before administration): 20.5% and 11.5%
change of contractivity(%) ([2]; dose 30.0 ug injected into perfusing blood, developed tension vs before administration): 30.7% and 23.3%
LD50 [6]: ≥ 30 mg/kg
